From patent US20190046469A1, “COMPOSITIONS AND METHODS FOR TREATING MOOD DISORDERS OR SKIN DISEASE OR DAMAGE” (priority 2012, published 2019)

Tests used:
[1] = tested on: OXT (Homo sapiens oxytocin/neurophysin I prepropeptide mRNA, NM_000915); experiment: Full thickness tissue DNA microarray screening, OXT gene expression; assay type: cell-based
Source text: (§1) DNA microarrays were used to screen xanthohumol for changes in the expression of thousands of different genes. DNA microarrays are extremely powerful tools that allow users to analyze changes in gene expression by monitoring changes in the messenger ribonucleic acid (“mRNA”) of hundreds to thousands of genes in a single experiment. All cells function by using their genes to make protein products. This process starts by making an mRNA copy of the gene through a process called transcription. The mRNA copy is then translated into a protein that plays a functional role within the cell or the cell's environment. Since the process of gene expression is highly regulated, the amount of mRNA can be a good indicator of the level of activity for a specific gene. With the introduction of DNA microarrays, researchers can now rapidly obtain a much more global view of what is happening inside of a cell since the results of one or two array experiments can potentially generate data on changes in gene expression across the entire known human genome.
(§2) This would result in a ratio of 1. If a treatment increases the expression of a gene, then the median intensity of the feature would be greater in the scan from the red laser than the green, resulting in a ration that is greater than 1. […] These broader ranges are a more conservative judging criterion and account for possible sources of variation in fluorescence intensity that are not associated with the treatment.
(§3) In addition to the information on active ingredients and raw materials that the DNA microarray can provide, the arrays can be used to better characterize the mechanisms of action related to certain therapeutic categories. The array data also allows the verification that a gene of interest is expressed in a certain model before running an experiment. The following tables provide the data based on the ratio of means after 50 μL of a xanthohumol liquid formulation with a concentration of 5 mg/ml xanthohumol was used in the following experiment. RNA was isolated from the tissues for subsequent analysis via DNA microarrays.

[2] = tested on: OXTR (Homo sapiens oxytocin receptor mRNA, NM_000916); experiment: Full thickness tissue DNA microarray screening, OXTR gene expression; assay type: cell-based
Source text: as §1, §2, §3

[3] = 50 μL of xanthohumol liquid formulation, 5 mg/ml, full thickness tissue, >=1.3 up-regulated, <=0.7 down-regulated
[4] = 50 μL of xanthohumol liquid formulation, 5 mg/ml, green laser scan
[5] = 50 μL of xanthohumol liquid formulation, 5 mg/ml, red laser scan (treated)
[6] = ratio of means above 1.3 = up-regulated

Q: `COc1cc(O)c(CC=C(C)C)c(O)c1C(=O)/C=C/c1ccc(O)cc1` [xanthohumol] was tested. Which “Ratio of Means (OXT)” value [1, 3] did it give?
A: The value was 2.488.

Q: What about the “F532 Median (OXT)” value [1, 4] of the same molecule?
A: Its value is 78.

Q: What about the “F635 Median (OXT)” value [1, 5] of the same molecule?
A: The value was 171.

Q: And the “regulation of OXT gene (in words)” value [1, 6]?
A: The value was “significantly up-regulated”.

Q: What about the “Ratio of Means (OXTR)” value [2, 3] of the same molecule?
A: Its value is 3.5.

Q: What about the “F532 Median (OXTR)” value [2, 4] of the same molecule?
A: The value was 43.

Q: What about the “F635 Median (OXTR)” value [2, 5] of the same molecule?
A: Its value is 53.

Q: What about the “up-regulation of OXTR” value ([2]; DNA microarray) of the same molecule?
A: Its value is “greater than 50%”.

Q: What about the “regulation of OXTR gene (in words)” value [2, 6] of the same molecule?
A: The value was “significantly up-regulated”.
